Source: PubChem BioAssay (NCI)
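Interpolation was linear, between the two tested concentrations surrounding the appropriate level; five concentrations were tested over 48 hours in 96-well plates. GI50 marks 50% less growth. Definition used: TGI = concentration required for complete inhibition of growth.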

tested on: LOX IMVI melanoma; assay: NCI anticancer screen, dose series, 48 h

Structure (SMILES)	GI50 [nM]	TGI [µM]
Cc1noc2c1-c1ccccc1C(c1ccc(Cl)cc1)=N[C@H]2CC(N)=O	2300	> 100
NCCCOc1cc(Cl)ccc1NC(=O)c1cc2ccccc2cc1OCCCN	1200	2.59
Cc1sc2c(c1C)C(c1ccc(Cl)cc1)=N[C@@H](CC(=O)Nc1ccc(OCCOCCOCCOCCNc3cccc4c3C(=O)N(C3CCC(=O)NC3=O)C4=O)cc1)c1nnc(C)n1-2 (some centres undefined)	234	19.1
NCCCOc1cc2ccccc2cc1C(=O)NCCCOc1cc2ccccc2cc1C(=O)Nc1ccc(Cl)cc1O	436	1.78
COc1cc(/C=C/C(=O)C(C(=O)/C=C/c2ccc(OC(=O)CCNC34CC5CC(CC(C5)C3)C4)c(OC)c2)C(=O)CCNC23CC4CC(CC(C4)C2)C3)ccc1OC(=O)CCNC12CC3CC(CC(C3)C1)C2 (centres undefined)	1980	3.94
CCOC(=O)C1=C(N)Oc2c(sc3c(C)cccc23)C1c1ccc(F)cc1 (centres undefined)	596	12.3
NC(N)=N/N=C(\N=Nc1ccccc1)c1ccc(Cl)cc1	1180	3.54
Cc1cc(NCCCCNc2ccnc3cc(Cl)ccc23)nc(Nc2ccc(C(=O)N3CCCCC3)cc2)n1	1440	3.01
Cc1c2c(C(N)=O)nccc2c(C)c2c1c1ccccc1n2Cc1ccccc1		19.7

tested on: NCI-H226 lung; assay: NCI anticancer screen, dose series, 48 h

Structure (SMILES)	GI50 [nM]	TGI [µM]
Cc1noc2c1-c1ccccc1C(c1ccc(Cl)cc1)=N[C@H]2CC(N)=O	11600	> 100
NCCCOc1cc(Cl)ccc1NC(=O)c1cc2ccccc2cc1OCCCN	1220	2.62
Cc1sc2c(c1C)C(c1ccc(Cl)cc1)=N[C@@H](CC(=O)Nc1ccc(OCCOCCOCCOCCNc3cccc4c3C(=O)N(C3CCC(=O)NC3=O)C4=O)cc1)c1nnc(C)n1-2 (some centres undefined)	< 21.2	> 100
NCCCOc1cc2ccccc2cc1C(=O)NCCCOc1cc2ccccc2cc1C(=O)Nc1ccc(Cl)cc1O	477	1.11
COc1cc(/C=C/C(=O)C(C(=O)/C=C/c2ccc(OC(=O)CCNC34CC5CC(CC(C5)C3)C4)c(OC)c2)C(=O)CCNC23CC4CC(CC(C4)C2)C3)ccc1OC(=O)CCNC12CC3CC(CC(C3)C1)C2 (centres undefined)	3210	12.5
CCOC(=O)C1=C(N)Oc2c(sc3c(C)cccc23)C1c1ccc(F)cc1 (centres undefined)	579	10.6
NC(N)=N/N=C(\N=Nc1ccccc1)c1ccc(Cl)cc1	3660	18.8
Cc1cc(NCCCCNc2ccnc3cc(Cl)ccc23)nc(Nc2ccc(C(=O)N3CCCCC3)cc2)n1	2620	7.81
Cc1c2c(C(N)=O)nccc2c(C)c2c1c1ccccc1n2Cc1ccccc1		69.6

tested on: A549 NSCLC; assay: NCI anticancer screen, dose series, 48 h

Structure (SMILES)	GI50 [nM]	TGI [µM]
Cc1noc2c1-c1ccccc1C(c1ccc(Cl)cc1)=N[C@H]2CC(N)=O	18300	> 100
NCCCOc1cc(Cl)ccc1NC(=O)c1cc2ccccc2cc1OCCCN	1540	3.06
Cc1sc2c(c1C)C(c1ccc(Cl)cc1)=N[C@@H](CC(=O)Nc1ccc(OCCOCCOCCOCCNc3cccc4c3C(=O)N(C3CCC(=O)NC3=O)C4=O)cc1)c1nnc(C)n1-2 (some centres undefined)	338	> 100
NCCCOc1cc2ccccc2cc1C(=O)NCCCOc1cc2ccccc2cc1C(=O)Nc1ccc(Cl)cc1O	198	0.383
COc1cc(/C=C/C(=O)C(C(=O)/C=C/c2ccc(OC(=O)CCNC34CC5CC(CC(C5)C3)C4)c(OC)c2)C(=O)CCNC23CC4CC(CC(C4)C2)C3)ccc1OC(=O)CCNC12CC3CC(CC(C3)C1)C2 (centres undefined)	2860	10.1
CCOC(=O)C1=C(N)Oc2c(sc3c(C)cccc23)C1c1ccc(F)cc1 (centres undefined)	804	17.2
NC(N)=N/N=C(\N=Nc1ccccc1)c1ccc(Cl)cc1	4250	18.5
Cc1cc(NCCCCNc2ccnc3cc(Cl)ccc23)nc(Nc2ccc(C(=O)N3CCCCC3)cc2)n1	2510	5.47
Cc1c2c(C(N)=O)nccc2c(C)c2c1c1ccccc1n2Cc1ccccc1		35.4

tested on: OVCAR-5 ovarian; assay: NCI anticancer screen, dose series, 48 h

Structure (SMILES)	GI50 [nM]	TGI [µM]
Cc1noc2c1-c1ccccc1C(c1ccc(Cl)cc1)=N[C@H]2CC(N)=O	> 100000	> 100
NCCCOc1cc(Cl)ccc1NC(=O)c1cc2ccccc2cc1OCCCN	1420	3.01
Cc1sc2c(c1C)C(c1ccc(Cl)cc1)=N[C@@H](CC(=O)Nc1ccc(OCCOCCOCCOCCNc3cccc4c3C(=O)N(C3CCC(=O)NC3=O)C4=O)cc1)c1nnc(C)n1-2 (some centres undefined)	< 46.5	> 100
NCCCOc1cc2ccccc2cc1C(=O)NCCCOc1cc2ccccc2cc1C(=O)Nc1ccc(Cl)cc1O	1090	2.56
COc1cc(/C=C/C(=O)C(C(=O)/C=C/c2ccc(OC(=O)CCNC34CC5CC(CC(C5)C3)C4)c(OC)c2)C(=O)CCNC23CC4CC(CC(C4)C2)C3)ccc1OC(=O)CCNC12CC3CC(CC(C3)C1)C2 (centres undefined)	5650	19.6
CCOC(=O)C1=C(N)Oc2c(sc3c(C)cccc23)C1c1ccc(F)cc1 (centres undefined)	1670	17.6
NC(N)=N/N=C(\N=Nc1ccccc1)c1ccc(Cl)cc1	3690	16.8
Cc1cc(NCCCCNc2ccnc3cc(Cl)ccc23)nc(Nc2ccc(C(=O)N3CCCCC3)cc2)n1	3040	9.22
Cc1c2c(C(N)=O)nccc2c(C)c2c1c1ccccc1n2Cc1ccccc1		> 100

tested on: EKVX NSCLC; assay: NCI anticancer screen, dose series, 48 h

Structure (SMILES)	GI50 [nM]	TGI [µM]
Cc1noc2c1-c1ccccc1C(c1ccc(Cl)cc1)=N[C@H]2CC(N)=O	14000	> 100
NCCCOc1cc(Cl)ccc1NC(=O)c1cc2ccccc2cc1OCCCN	1690	3.58
Cc1sc2c(c1C)C(c1ccc(Cl)cc1)=N[C@@H](CC(=O)Nc1ccc(OCCOCCOCCOCCNc3cccc4c3C(=O)N(C3CCC(=O)NC3=O)C4=O)cc1)c1nnc(C)n1-2 (some centres undefined)	409	> 100
NCCCOc1cc2ccccc2cc1C(=O)NCCCOc1cc2ccccc2cc1C(=O)Nc1ccc(Cl)cc1O	740	2.43
COc1cc(/C=C/C(=O)C(C(=O)/C=C/c2ccc(OC(=O)CCNC34CC5CC(CC(C5)C3)C4)c(OC)c2)C(=O)CCNC23CC4CC(CC(C4)C2)C3)ccc1OC(=O)CCNC12CC3CC(CC(C3)C1)C2 (centres undefined)	2950	8.97
CCOC(=O)C1=C(N)Oc2c(sc3c(C)cccc23)C1c1ccc(F)cc1 (centres undefined)	880	19.7
NC(N)=N/N=C(\N=Nc1ccccc1)c1ccc(Cl)cc1	2550	13.5
Cc1cc(NCCCCNc2ccnc3cc(Cl)ccc23)nc(Nc2ccc(C(=O)N3CCCCC3)cc2)n1	2970	10.8
